Test results reported in the supplement of paper PMC11061612.

How the values were obtained:
AZD5991 = compound: Cc1c2c(nn1C)CSCc1cc(n(C)n1)CSc1cc(c3ccccc3c1)OCCCc1c(C(=O)O)n(C)c3c-2c(Cl)ccc13 [AZD5991]; conditions: max 1 µM
Outline: (§1)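 Plates with 1536 wells received cancer cell lines in 7.5 μl of DMEM/F12 or RPMI containing 10% FBS. After 24 hours at 37°C and 5% CO2, cells were dosed for 72 hours with final DMSO typically 0.2%, and viability was read by CellTiter-Glo 2.0 luminescence scaled between blank-well and DMSO-well means. The single-agent IC50 was taken from a logistic fit of the dose responses made with a non-linear mixed effects model, that logistic curve having two parameters.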

Alisertib = compound: COc1cc(Nc2ncc3c(n2)-c2ccc(Cl)cc2C(c2c(F)cccc2OC)=NC3)ccc1C(=O)O [Alisertib]; conditions: max 10 µM
Outline: as §1

Taselisib = compound: Cc1nc(-c2cn3c(n2)-c2ccc(-c4cnn(C(C)(C)C(N)=O)c4)cc2OCC3)n(C(C)C)n1 [Taselisib]; conditions: max 10 µM
Outline: as §1

AZD1390 = compound: CC(C)n1c(=O)n(C)c2cnc3cc(F)c(-c4ccc(OCCCN5CCCCC5)nc4)cc3c21 [AZD1390]; conditions: max 0.3 µM
Outline: as §1

Prexasertib = compound: COc1cccc(OCCCN)c1-c1cc(Nc2cnc(C#N)cn2)n[nH]1 [Prexasertib]; conditions: max 1 µM
Outline: as §1

AZD8186 = compound: C[C@@H](Nc1cc(F)cc(F)c1)c1cc(C(=O)N(C)C)cc2c(=O)cc(N3CCOCC3)oc12 [AZD8186]; conditions: max 10 µM
Outline: as §1

Carboplatin = compound: C1CC(C1)(C(=O)[O-])C(=O)[O-].N.N.[Pt+2] [Carboplatin]; conditions: max 10 µM
Outline: as §1

Venetoclax = compound: CC1(C)CCC(CN2CCN(c3ccc(C(=O)NS(=O)(=O)c4ccc(NCC5CCOCC5)c([N+](=O)[O-])c4)c(Oc4cnc5[nH]ccc5c4)c3)CC2)=C(c2ccc(Cl)cc2)C1 [Venetoclax]; conditions: max 1 µM
Outline: as §1

Trametinib = compound: CC(=O)Nc1cccc(-n2c(=O)n(C3CC3)c(=O)c3c(Nc4ccc(I)cc4F)n(C)c(=O)c(C)c32)c1 [Trametinib]; conditions: max 1 µM
Outline: as §1

AZD7648 = compound: Cc1cc2ncnn2cc1Nc1ncc2c(n1)n(C1CCOCC1)c(=O)n2C [AZD7648]; conditions: max 10 µM
Outline: as §1

5-Fluorouracil = compound: O=c1[nH]cc(F)c(=O)[nH]1 [5-Fluorouracil]; conditions: max 20 µM
Outline: as §1

[1] = compound: O=C(Nc1ccc2[nH]nc(-c3ccncc3)c2c1)[C@@H]1CCN(CC(=O)N2CCN(c3ccc(-c4ncccn4)cc3)CC2)C1; conditions: max 5 µM
Outline: as §1

Gefitinib = compound: COc1cc2ncnc(Nc3ccc(F)c(Cl)c3)c2cc1OCCCN1CCOCC1 [Gefitinib]; conditions: max 10 µM
Outline: as §1

Etoposide = compound: COc1cc([C@@H]2c3cc4c(cc3[C@@H](O[C@@H]3O[C@@H]5CO[C@@H](C)O[C@H]5[C@H](O)[C@H]3O)[C@H]3COC(=O)[C@H]23)OCO4)cc(OC)c1O [Etoposide]; conditions: max 10 µM
Outline: as §1

MK-2206 = compound: NC1(c2ccc(-c3nc4ccn5c(=O)[nH]nc5c4cc3-c3ccccc3)cc2)CCC1 [MK-2206]; conditions: max 10 µM
Outline: as §1

Crizotinib = compound: C[C@@H](Oc1cc(-c2cnn(C3CCNCC3)c2)cnc1N)c1c(Cl)ccc(F)c1Cl [Crizotinib]; conditions: max 10 µM
Outline: as §1

AZD1775 = compound: C=CCn1c(=O)c2cnc(Nc3ccc(N4CCN(C)CC4)cc3)nc2n1-c1cccc(C(C)(C)O)n1 [AZD1775]; conditions: max 3 µM
Outline: as §1

Savolitinib = compound: C[C@@H](c1ccc2nccn2c1)n1nnc2ncc(-c3cnn(C)c3)nc21 [Savolitinib]; conditions: max 1 µM
Outline: as §1

AZD5153 = compound: COc1nnc2ccc(N3CCC(c4ccc(OCCN5CCN(C)C(=O)[C@H]5C)cc4)CC3)nn12 [AZD5153]; conditions: max 1 µM
Outline: as §1

Selumetinib = compound: Cn1cnc2c(F)c(Nc3ccc(Br)cc3Cl)c(C(=O)NOCCO)cc21 [Selumetinib]; conditions: max 10 µM
Outline: as §1

Olaparib = compound: O=C(c1cc(Cc2n[nH]c(=O)c3ccccc23)ccc1F)N1CCN(C(=O)C2CC2)CC1 [Olaparib]; conditions: max 10 µM
Outline: as §1

AZD4320 = compound: CN(CC[C@H](CSC1=CC=CC=C1)NC2=C(C=C(C=C2)S(=O)(=O)NC(=O)C3=CC=C(C=C3)N4CCC(CC4)[C@H](C5=CC=CC=C5C6=CC=C(C=C6)Cl)O)S(=O)(=O)C(F)(F)F)CCO [AZD4320]; conditions: max 1 µM
Outline: as §1

Gemcitabine = compound: Nc1ccn([C@@H]2O[C@H](CO)[C@@H](O)C2(F)F)c(=O)n1 [Gemcitabine]; conditions: max 0.3 µM
Outline: as §1

AZD6738 = compound: C[C@@H]1COCCN1C2=NC(=NC(=C2)C3(CC3)[S@](=N)(=O)C)C4=C5C=CNC5=NC=C4 [AZD6738]; conditions: max 10 µM
Outline: as §1

AZD5363 = compound: C1CN(CCC1(C(=O)N[C@@H](CCO)C2=CC=C(C=C2)Cl)N)C3=NC=NC4=C3C=CN4 [AZD5363]; conditions: max 10 µM
Outline: as §1

Doxorubicin = compound: COc1cccc2c1C(=O)c1c(O)c3c(c(O)c1C2=O)C[C@@](O)(C(=O)CO)C[C@@H]3O[C@H]1C[C@H](N)[C@H](O)[C@H](C)O1 [Doxorubicin]; conditions: max 1 µM
Outline: as §1

SRA737 = compound: N#Cc1cnc(Nc2cc(NC[C@H]3CNCCO3)c(C(F)(F)F)cn2)cn1 [SRA737]; conditions: max 10 µM
Outline: as §1

Paclitaxel = compound: CC(=O)O[C@H]1C(=O)[C@@]2(C)[C@H]([C@H](OC(=O)c3ccccc3)[C@]3(O)C[C@H](OC(=O)[C@H](O)[C@@H](NC(=O)c4ccccc4)c4ccccc4)C(C)=C1C3(C)C)[C@]1(OC(C)=O)CO[C@@H]1C[C@@H]2O [Paclitaxel]; conditions: max 3 µM
Outline: as §1

Lapatinib = compound: CS(=O)(=O)CCNCc1ccc(-c2ccc3ncnc(Nc4ccc(OCc5cccc(F)c5)c(Cl)c4)c3c2)o1 [Lapatinib]; conditions: max 10 µM
Outline: as §1

AZD2811 = compound: CCN(CCO)CCCOc1ccc2c(Nc3cc(CC(=O)Nc4cccc(F)c4)[nH]n3)ncnc2c1 [AZD2811]; conditions: max 1 µM
Outline: as §1

SN-38 = compound: CCc1c2c(nc3ccc(O)cc13)-c1cc3c(c(=O)n1C2)COC(=O)[C@]3(O)CC [SN-38]; conditions: max 0.3 µM
Outline: as §1

AZD0156 = compound: CN(C)CCCOc1ccc(-c2ccc3ncc4c(c3c2)n(C2CCOCC2)c(=O)n4C)cn1 [AZD0156]; conditions: max 3 µM
Outline: as §1

SG3199 = compound: CC1=CN2[C@@H](C1)C=NC3=CC(=C(C=C3C2=O)OC)OCCCCCOC4=C(C=C5C(=C4)N=C[C@@H]6CC(=CN6C5=O)C)OC [SG3199]; conditions: max 0.001 µM
Outline: as §1

Dasatinib = compound: CC1=C(C(=CC=C1)Cl)NC(=O)C2=CN=C(S2)NC3=CC(=NC(=N3)C)N4CCN(CC4)CCO [Dasatinib]; conditions: max 2 µM
Outline: as §1

Palbociclib = compound: CC(=O)c1c(C)c2cnc(Nc3ccc(N4CCNCC4)cn3)nc2n(C2CCCC2)c1=O [Palbociclib]; conditions: max 10 µM
Outline: as §1

Row | Cell Line | IC50, cell viability 72 h (AZD5991) [nM] | IC50, cell viability 72 h (Alisertib) [nM] | IC50, cell viability 72 h (Taselisib) [nM] | IC50, cell viability 72 h (AZD1390) [nM] | IC50, cell viability 72 h (Prexasertib) [nM] | IC50, cell viability 72 h (AZD8186) [nM] | IC50, cell viability 72 h (Carboplatin) [nM] | IC50, cell viability 72 h (Venetoclax) [nM] | IC50, cell viability 72 h (Trametinib) [nM] | IC50, cell viability 72 h (AZD7648) [nM] | IC50, cell viability 72 h (5-Fluorouracil) [nM] | IC50, cell viability 72 h [1] [nM] | IC50, cell viability 72 h (Gefitinib) [nM] | IC50, cell viability 72 h (Etoposide) [nM] | IC50, cell viability 72 h (MK-2206) [nM] | IC50, cell viability 72 h (Crizotinib) [nM] | IC50, cell viability 72 h (AZD1775) [nM] | IC50, cell viability 72 h (Savolitinib) [nM] | IC50, cell viability 72 h (AZD5153) [nM] | IC50, cell viability 72 h (Selumetinib) [nM] | IC50, cell viability 72 h (Olaparib) [nM] | IC50, cell viability 72 h (AZD4320) [nM] | IC50, cell viability 72 h (Gemcitabine) [nM] | IC50, cell viability 72 h (AZD6738) [nM] | IC50, cell viability 72 h (AZD5363) [nM] | IC50, cell viability 72 h (Doxorubicin) [nM] | IC50, cell viability 72 h (SRA737) [nM] | IC50, cell viability 72 h (Paclitaxel) [nM] | IC50, cell viability 72 h (Lapatinib) [nM] | IC50, cell viability 72 h (AZD2811) [nM] | IC50, cell viability 72 h (SN-38) [nM] | IC50, cell viability 72 h (AZD0156) [nM] | IC50, cell viability 72 h (SG3199) [nM] | IC50, cell viability 72 h (Dasatinib) [nM] | IC50, cell viability 72 h (Palbociclib) [nM]
1 | NB69 (Neuroblastoma) | 201 | 238 | 487 | > 300 | 89.9 | 7650 | > 10000 | > 1000 | 3.07 | > 10000 | 8720 | 27.2 | > 10000 | 166 | > 10000 | 2540 | 444 | > 1000 | 37.7 | 232 | > 10000 | 226 | 16 | 3130 | > 10000 | 77.2 | > 10000 | 15 | 9900 | 470 | 2.16 | > 3000 | > 1 | 141 | 491
2 | NCI-H358 (Lung Adenocarcinoma) | > 1000 | > 10000 | 3470 | > 300 | 46.6 | > 10000 | > 10000 | > 1000 | 147 | > 10000 | > 20000 | > 5000 | > 10000 | > 10000 | > 10000 | > 10000 | > 3000 | > 1000 | > 1000 | > 10000 | > 10000 | > 1000 | > 300 | > 10000 | > 10000 | > 1000 | > 10000 | 28.1 | > 10000 | > 1000 | > 300 | > 3000 | > 1 | > 2000 | > 10000
3 | NCI-H727 (Other Solid Carcinomas) | > 1000 | > 10000 | 2500 | > 300 | 75.9 | > 10000 | > 10000 | > 1000 | 39.2 | > 10000 | > 20000 | 833 | > 10000 | > 10000 | > 10000 | > 10000 | 2600 | > 1000 | > 1000 | 1120 | > 10000 | > 1000 | > 300 | > 10000 | > 10000 | > 1000 | > 10000 | > 3000 | > 10000 | > 1000 | > 300 | > 3000 | > 1 | > 2000 | > 10000
4 | PANC-04-03 (Pancreatic Carcinoma) | > 1000 | > 10000 | 7660 | > 300 | 530 | > 10000 | > 10000 | > 1000 | 286 | > 10000 | > 20000 | 4530 | > 10000 | > 10000 | > 10000 | > 10000 | > 3000 | > 1000 | > 1000 | > 10000 | > 10000 | > 1000 | > 300 | > 10000 | > 10000 | > 1000 | > 10000 | 2340 | > 10000 | > 1000 | > 300 | > 3000 | > 1 | > 2000 | > 10000
5 | RF-48 (B-Cell Non-Hodgkin's Lymphoma) | > 1000 | > 10000 | > 10000 | > 300 | 132 | > 10000 | > 10000 | > 1000 | > 1000 | > 10000 | > 20000 | > 5000 | > 10000 | > 10000 | > 10000 | > 10000 | 1450 | > 1000 | > 1000 | > 10000 | > 10000 | 24.7 | 82.7 | > 10000 | > 10000 | 424 | > 10000 | 19.9 | > 10000 | > 1000 | 21.2 | > 3000 | > 1 | > 2000 | > 10000
